Here are results for twelve compounds from US12539292B2, “BRM targeting compounds and associated methods of use” (Arvinas Operations, Inc., priority 2018, dated 2026).

This experiment has as its target T1, BRM (Homo sapiens, UniProt P51531).
T1 construct: In-Cell Western Screen of BRM Degradation in SW1573 Cells; endogenous in cells; host or cells: SW1573
Nature of the experiment: In-cell Western screen of BRM degradation in SW1573 cells (Dmax and DC50). It is filed as cell-based. A digest of the protocol: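 After adhering overnight, cells received compound for 18-20 hours. They were then washed in cold DPBS, fixed with 4% PFA for 20 min and permeabilized for 30 min. Blocking and fluorescent secondary staining followed before imaging.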

The mark [1] stands for this setting: BRM degradation, SW1573 cells, read-out: DC50.
Where [2] appears, read: BRM degradation, SW1573 cells, read-out: Dmax (% degraded).
Setting [3] is: BRM degradation, SW1573 cells, tested at the top concentration of between 0.3 and 10 μM, read-out: Dmax (%) (% degraded).
Where [4] appears, read: degradation of BRM, read-out: BRM DC50.
The mark [5] stands for this setting: BRM degradation, SW1573 cells, Table 2D, read-out: **Dmax (%) (% degraded).
Where [6] appears, read: BRM degradation, SW1573 cells, Table 2D, read-out: *DC50.
Setting [7] is: SW1573, % degraded, when tested at the top concentration of between 0.3 and 10 μM, read-out: BRM Dmax (%).

Like-named read-outs stand apart in the source and are kept apart here.

T1 sequence (P51531 whole entry): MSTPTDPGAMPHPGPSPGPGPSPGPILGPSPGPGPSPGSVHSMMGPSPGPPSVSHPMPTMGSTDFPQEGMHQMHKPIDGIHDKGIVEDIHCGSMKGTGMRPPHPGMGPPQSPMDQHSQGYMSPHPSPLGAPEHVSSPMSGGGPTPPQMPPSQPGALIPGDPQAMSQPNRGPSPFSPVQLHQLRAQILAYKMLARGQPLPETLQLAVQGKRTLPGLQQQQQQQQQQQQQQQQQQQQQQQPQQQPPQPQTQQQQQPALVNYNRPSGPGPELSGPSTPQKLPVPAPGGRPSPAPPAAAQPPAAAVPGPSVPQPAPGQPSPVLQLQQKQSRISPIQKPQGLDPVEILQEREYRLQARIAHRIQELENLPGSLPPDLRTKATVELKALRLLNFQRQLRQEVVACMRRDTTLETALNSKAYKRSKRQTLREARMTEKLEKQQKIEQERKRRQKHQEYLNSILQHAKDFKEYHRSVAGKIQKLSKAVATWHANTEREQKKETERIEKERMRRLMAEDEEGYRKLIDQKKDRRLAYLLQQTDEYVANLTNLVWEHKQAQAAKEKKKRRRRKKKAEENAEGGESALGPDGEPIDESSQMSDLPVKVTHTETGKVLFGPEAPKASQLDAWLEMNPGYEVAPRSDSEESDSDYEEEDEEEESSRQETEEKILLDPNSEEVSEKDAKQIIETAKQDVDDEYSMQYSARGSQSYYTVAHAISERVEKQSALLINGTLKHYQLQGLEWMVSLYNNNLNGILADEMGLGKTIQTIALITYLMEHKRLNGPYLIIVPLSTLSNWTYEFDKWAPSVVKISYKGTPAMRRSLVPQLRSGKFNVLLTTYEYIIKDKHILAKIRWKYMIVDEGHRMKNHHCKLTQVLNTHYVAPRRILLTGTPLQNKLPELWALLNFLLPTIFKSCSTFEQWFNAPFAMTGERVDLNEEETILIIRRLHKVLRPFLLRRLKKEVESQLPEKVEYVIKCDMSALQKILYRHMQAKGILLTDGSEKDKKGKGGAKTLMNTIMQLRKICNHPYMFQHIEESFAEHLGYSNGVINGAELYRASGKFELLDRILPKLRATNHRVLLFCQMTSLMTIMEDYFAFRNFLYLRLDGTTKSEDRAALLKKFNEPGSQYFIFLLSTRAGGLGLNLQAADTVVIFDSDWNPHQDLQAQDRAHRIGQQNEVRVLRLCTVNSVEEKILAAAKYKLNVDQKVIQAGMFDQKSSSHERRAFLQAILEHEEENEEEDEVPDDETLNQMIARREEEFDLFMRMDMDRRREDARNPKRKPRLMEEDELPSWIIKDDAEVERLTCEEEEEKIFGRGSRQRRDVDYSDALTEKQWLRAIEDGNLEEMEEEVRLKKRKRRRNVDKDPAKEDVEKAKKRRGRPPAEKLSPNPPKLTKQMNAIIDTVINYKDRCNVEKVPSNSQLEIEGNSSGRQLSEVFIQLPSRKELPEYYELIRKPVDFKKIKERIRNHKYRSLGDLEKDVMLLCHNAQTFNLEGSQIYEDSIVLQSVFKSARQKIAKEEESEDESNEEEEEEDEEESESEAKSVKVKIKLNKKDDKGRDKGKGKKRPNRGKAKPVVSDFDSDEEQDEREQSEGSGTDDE

On to `Cc1ncsc1-c1ccc([C@H](C)NC(=O)[C@@H]2C[C@@H](O)CN2C(=O)[C@@H](c2cc(N3CCC(O)(CN4CCC(O[C@H]5C[C@H](Oc6cc(N7C8CCC7CN(c7cc(-c9ccccc9O)nnc7N)C8)ccn6)C5)CC4)CC3)no2)C(C)C)cc1` [compound 645, (2S,4R)-1-((2R)-2-(3-(4-((4-((1r,3r)-3-((4-(3-(3-amino-6-(2-hydroxyphenyl)pyridazin-4-yl)-3,8-diazabicyclo[3.2.1]octan-8-yl)pyridin-2-yl)oxy)cyclobutoxy)piperidin-1-yl)methyl)-4-hydroxypiperidin-1-yl)isoxazol-5-yl)-3-methylbutanoyl)-4-hydroxy-N-((S)-1-(4-(4-methylthiazol-5-yl)phenyl)ethyl)pyrrolidine-2-carboxamide], for which the DC50 (in general, the concentration at which degradation of the target reaches its halfway point) under setting [1] was below 2.5 nM. The Dmax (commonly the greatest extent of degradation seen) under setting [2] is above 75%. `Cc1ncsc1-c1ccc([C@H](C)NC(=O)[C@@H]2C[C@@H](O)CN2C(=O)[C@@H](c2cc(OCCOCCOCCOCCn3cc(-c4cc(-c5ccccc5O)nnc4N)cn3)no2)C(C)C)cc1` [compound 182, (2S,4R)-1-((R)-2-(3-(2-(2-(2-(2-(4-(3-amino-6-(2-hydroxyphenyl)pyridazin-4-yl)-1H-pyrazol-1-yl)ethoxy)ethoxy)ethoxy)ethoxy)isoxazol-5-yl)-3-methylbutanoyl)-4-hydroxy-N-((S)-1-(4-(4-methylthiazol-5-yl)phenyl)ethyl)pyrrolidine-2-carboxamide]: the half-maximal degradation concentration (DC50) under setting [1] lay within 2.5 to 10 nM. In addition, under setting [3], the Dmax is above 75%.

Take `Cc1ncsc1-c1ccc([C@H](C)NC(=O)[C@@H]2C[C@@H](O)CN2C(=O)[C@H](c2cc(N3CCC(C#CCN4CCC(Oc5cc(N6C7CCC6CN(c6cc(-c8ccccc8O)nnc6N)C7)ccn5)CC4)CC3)no2)C(C)C)cc1` [compound 676, (2S,4R)-1-((2S)-2-(3-(4-(3-(4-((4-(3-(3-amino-6-(2-hydroxyphenyl)pyridazin-4-yl)-3,8-diazabicyclo[3.2.1]octan-8-yl)pyridin-2-yl)oxy)piperidin-1-yl)prop-1-yn-1-yl)piperidin-1-yl)isoxazol-5-yl)-3-methylbutanoyl)-4-hydroxy-N-((S)-1-(4-(4-methylthiazol-5-yl)phenyl)ethyl)pyrrolidine-2-carboxamide]: the DC50 under setting [1] was in the range of 2.5 to 10 nM. The Dmax under setting [2] was above 75%. Take `Cc1ncsc1-c1ccc(CNC(=O)[C@@H]2C[C@@H](O)CN2C(=O)[C@H](c2cc(OCCN3CCN(CCOCCn4cc(-c5cc(-c6ccccc6O)nnc5N)cn4)CC3)no2)C(C)C)cc1` [compound 165, (2S,4R)-1-((S)-2-(3-(2-(4-(2-(2-(4-(3-amino-6-(2-hydroxyphenyl)pyridazin-4-yl)-1H-pyrazol-1-yl)ethoxy)ethyl)piperazin-1-yl)ethoxy)isoxazol-5-yl)-3-methylbutanoyl)-4-hydroxy-N-(4-(4-methylthiazol-5-yl)benzyl)pyrrolidine-2-carboxamide]: under setting [1], the DC50 is above 30 nM. Moreover, under setting [3], the Dmax was below 50%.

`Cc1ncsc1-c1ncc([C@H](C)NC(=O)[C@@H]2C[C@@H](O)CN2C(=O)[C@H](c2cc(OCCN3CCC(O[C@H]4C[C@H](Oc5cc(N6C7CCC6CN(c6cc(-c8ccccc8O)nnc6N)C7)ccn5)C4)CC3)no2)C(C)C)cn1` [compound 429, (2S,4R)-1-((2S)-2-(3-(2-(4-((1r,3S)-3-((4-(3-(3-amino-6-(2-hydroxyphenyl)pyridazin-4-yl)-3,8-diazabicyclo[3.2.1]octan-8-yl)pyridin-2-yl)oxy)cyclobutoxy)piperidin-1-yl)ethoxy)isoxazol-5-yl)-3-methylbutanoyl)-4-hydroxy-N-((S)-1-(2-(4-methylthiazol-5-yl)pyrimidin-5-yl)ethyl)pyrrolidine-2-carboxamide]: the DC50 under setting [4] was above 30 nM. In the case of `Cc1ncsc1-c1ccc([C@H](CC#N)NC(=O)[C@@H]2C[C@@H](O)CN2C(=O)[C@@H](c2cc(N3CCC(CN4CCC(O[C@H]5C[C@H](Oc6cc(N7C8CCC7CN(c7cc(-c9ccccc9O)nnc7N)C8)ccn6)C5)CC4)CC3)no2)C(C)C)cc1` [compound 671, (2S,4R)-1-((2R)-2-(3-(4-((4-((1r,3r)-3-((4-(3-(3-amino-6-(2-hydroxyphenyl)pyridazin-4-yl)-3,8-diazabicyclo[3.2.1]octan-8-yl)pyridin-2-yl)oxy)cyclobutoxy)piperidin-1-yl)methyl)piperidin-1-yl)isoxazol-5-yl)-3-methylbutanoyl)-N-((S)-2-cyano-1-(4-(4-methylthiazol-5-yl)phenyl)ethyl)-4-hydroxypyrrolidine-2-carboxamide], the DC50 under setting [1] was below 2.5 nM. Moreover, the greatest degradation seen (Dmax) under setting [2] is above 75%. In the case of `Cc1ncsc1-c1ccc([C@H](C)NC(=O)[C@@H]2C[C@@H](O)CN2C(=O)[C@@H](c2cc(OCCN3CC[C@@H](OCCc4cc(N5C6CCC5CN(c5cc(-c7ccccc7O)nnc5N)C6)ccn4)C[C@@H]3C)no2)C(C)C)cc1` (racemic) [compound 567, (2S,4R)-1-((2R)-2-(3-(2-((2S,4R)-4-(2-(4-(3-(3-amino-6-(2-hydroxyphenyl)pyridazin-4-yl)-3,8-diazabicyclo[3.2.1]octan-8-yl)pyridin-2-yl)ethoxy)-2-methylpiperidin-1-yl)ethoxy)isoxazol-5-yl)-3-methylbutanoyl)-4-hydroxy-N-((S)-1-(4-(4-methylthiazol-5-yl)phenyl)ethyl) pyrrolidine-2-carboxamide], the Dmax under setting [5] was above 75%. Besides, under setting [6], the DC50 lay within 2.5 to 10 nM. With `Cc1ncsc1-c1ccc([C@H](C)NC(=O)[C@@H]2C[C@@H](O)CN2C(=O)[C@@H](c2cc(N3CCC(CN4CCC(O[C@H]5C[C@H](Oc6cc(N7C8CCC7CN(c7cc(-c9ccccc9O)nnc7N)C8)ccn6)C5)CC4)CC3)no2)C(C)C)cc1F` [compound 652, (2S,4R)-1-((2R)-2-(3-(4-((4-((1r,3r)-3-((4-(3-(3-amino-6-(2-hydroxyphenyl)pyridazin-4-yl)-3,8-diazabicyclo[3.2.1]octan-8-yl)pyridin-2-yl)oxy)cyclobutoxy)piperidin-1-yl)methyl)piperidin-1-yl)isoxazol-5-yl)-3-methylbutanoyl)-N-((S)-1-(3-fluoro-4-(4-methylthiazol-5-yl)phenyl)ethyl)-4-hydroxypyrrolidine-2-carboxamide], the DC50 under setting [1] is below 2.5 nM. Further, under setting [2], the Dmax is above 75%. For the compound `Cc1ncsc1-c1ccc([C@H](C)NC(=O)[C@@H]2C[C@@H](O)CN2C(=O)[C@H](c2cc(CCCOCCOCCOCCn3cc(-c4cc(-c5ccccc5O)nnc4N)cn3)no2)C(C)C)cc1` [compound 196, (2S,4R)-1-((S)-2-(3-(3-(2-(2-(2-(4-(3-amino-6-(2-hydroxyphenyl)pyridazin-4-yl)-1H-pyrazol-1-yl)ethoxy)ethoxy)ethoxy)propyl)isoxazol-5-yl)-3-methylbutanoyl)-4-hydroxy-N-((S)-1-(4-(4-methylthiazol-5-yl)phenyl)ethyl)pyrrolidine-2-carboxamide], the DC50 under setting [1] is above 30 nM. In addition, under setting [3], the Dmax was above 75%. Regarding `Cc1ncsc1-c1ccc([C@H](C)NC(=O)[C@@H]2C[C@@H](O)CN2C(=O)[C@@H](c2cc(OCCN3CCC(O[C@H]4C[C@H](OCC#CCn5cc(-c6cc(-c7ccccc7O)nnc6N)cn5)C4)CC3)no2)C(C)C)cc1` [compound 395, (2S,4R)-1-((R)-2-(3-(2-(4-((1r,3R)-3-((4-(4-(3-amino-6-(2-hydroxyphenyl)pyridazin-4-yl)-1H-pyrazol-1-yl)but-2-yn-1-yl)oxy)cyclobutoxy)piperidin-1-yl)ethoxy)isoxazol-5-yl)-3-methylbutanoyl)-4-hydroxy-N-((S)-1-(4-(4-methylthiazol-5-yl)phenyl)ethyl)pyrrolidine-2-carboxamide], under setting [7], the Dmax was above 75%. For the same compound, the DC50 (target protein degradation, read-out: BRM DC50) is below 2.5 nM. Turning to `CC(C)[C@@H](C(=O)N1C[C@H](O)C[C@H]1C(=O)NCc1ccc(C2(F)CC2)cc1)c1cc(OCCN2CCC(O[C@H]3C[C@H](Oc4cc(N5C6CCC5CN(c5cc(-c7ccccc7O)nnc5N)C6)ccn4)C3)CC2)no1` [compound 419, (2S,4R)-1-((2R)-2-(3-(2-(4-((1r,3R)-3-((4-(3-(3-amino-6-(2-hydroxyphenyl)pyridazin-4-yl)-3,8-diazabicyclo[3.2.1]octan-8-yl)pyridin-2-yl)oxy)cyclobutoxy)piperidin-1-yl)ethoxy)isoxazol-5-yl)-3-methylbutanoyl)-N-(4-(1-fluorocyclopropyl)benzyl)-4-hydroxypyrrolidine-2-carboxamide], the Dmax under setting [7] was above 75%. Also, under setting [4], the DC50 was in the range of 2.5 to 10 nM. Take `Cc1ncsc1-c1ccc([C@H](C)NC(=O)[C@@H]2C[C@@H](O)CN2C(=O)[C@@H](c2cc(OCC[C@H]3CCN(C[C@H]4C[C@H](Oc5cc(N6C7CCC6CN(c6cc(-c8ccccc8O)nnc6N)C7)ccn5)C4)C[C@H]3C)no2)C(C)C)cc1` (racemic) [compound 566, (2S,4R)-1-((2R)-2-(3-(2-((3S,4R)-1-(((1r,3S)-3-((4-(3-(3-amino-6-(2-hydroxyphenyl)pyridazin-4-yl)-3,8-diazabicyclo[3.2.1]octan-8-yl)pyridin-2-yl)oxy)cyclobutyl)methyl)-3-methylpiperidin-4-yl)ethoxy)isoxazol-5-yl)-3-methylbutanoyl)-4-hydroxy-N-((S)-1-(4-(4-methylthiazol-5-yl)phenyl)ethyl) pyrrolidine-2-carboxamide]: the Dmax under setting [5] was above 75%. In addition, under setting [6], the DC50 is below 2.5 nM.
